Some test systems named below: 786-0 renal; A549 NSCLC; ACHN renal; CAKI-1 renal; HCC-2998 colon; LOX IMVI melanoma; LXFL 529 NSCLC; M19-MEL melanoma; NCI-H23 lung; DU-145 prostate.
Assay in all cases: NCI tumour cell line growth inhibition, 48 h

We go through 15 compounds from PubChem BioAssay (NCI).

Where “and” joins values, the source holds several entries; their conditions need not be identical. Equal entries are not always repeated.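 Where inhibition never reached the appropriate level, the endpoint shown equals the highest concentration tested. Otherwise, values were interpolated linearly from a five-concentration, 48-hour dose response in 96-well plates. At the GI50, growth is halved. At the TGI there is no net growth.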

Consider `O=C1c2ccccc2C(=O)c2cc3c(cc21)CS(=O)C3`, for which the TGI in the experiment with 786-0 renal, in the experiment with A549 NSCLC, in the experiment with ACHN renal, in the experiment with CAKI-1 renal, in the experiment with HCC-2998 colon and with LOX IMVI melanoma was greater than 100 µM each time. Moreover, the TGI in the experiment on LXFL 529 NSCLC, with M19-MEL melanoma and in the experiment on NCI-H23 lung was greater than 100 µM each time.
As to `O=C(c1ccc(O)cc1O)C1C(c2ccc(O)cc2)OC(c2ccc(O)cc2)C1C(=O)c1ccc(O)cc1O` (stereo not given), the TGI with 786-0 renal was 23.2 µM; in the experiment on A549 NSCLC it was greater than 100 µM; with ACHN renal it was 63.1 µM; in the experiment on CAKI-1 renal it was greater than 100 µM; with HCC-2998 colon it was 33.3 µM; in the experiment with LOX IMVI melanoma, 44.2 µM. The TGI in the experiment on LXFL 529 NSCLC was 34.7 µM; in the experiment on M19-MEL melanoma, 36.5 µM; in the experiment on NCI-H23 lung it was 74.2 µM.
For `CC(C)/C=C1\CCC(CN(C)C)C1=O` (stereo not given), the TGI with 786-0 renal stood at 1.25 µM; in the experiment on A549 NSCLC, 17.2 µM; in the experiment on ACHN renal, 12.5 µM; in the experiment on CAKI-1 renal, 4.21 µM; in the experiment with DU-145 prostate, 3.21 µM; in the experiment on HCC-2998 colon, 19.1 µM. Also, the TGI in the experiment on LOX IMVI melanoma stood at 11.9 µM; with LXFL 529 NSCLC it was 2.85 µM; with M19-MEL melanoma, 33.7 µM; with NCI-H23 lung, 25.4 µM.
As to `CC(=O)OCC1OC(n2c(=S)n(-c3ccc([N+](=O)[O-])cc3)c(=O)c3ccccc32)C(OC(C)=O)C(OC(C)=O)C1OC(C)=O` (stereo not given), the GI50 in the experiment on 786-0 renal is 17.9 µM; with A549 NSCLC, 23.1 µM and 32 µM; with ACHN renal it was 20.3 µM and 29.7 µM; in the experiment on CAKI-1 renal, 25.3 µM and 35.9 µM; with HCC-2998 colon it was 26.8 µM and 20.8 µM; in the experiment with LXFL 529 NSCLC, 11.3 µM and 17.4 µM. In the experiment on M19-MEL melanoma, the GI50 was 29.7 µM and 16.8 µM. The TGI is 45.6 µM and 39 µM with 786-0 renal; greater than 100 µM in the experiment with A549 NSCLC; 97.9 µM and > 100 µM in the experiment on ACHN renal; greater than 100 µM with CAKI-1 renal; greater than 100 µM in the experiment with DU-145 prostate; 61.4 µM and 46.6 µM with HCC-2998 colon. The TGI is 51.8 µM and 31.5 µM with LOX IMVI melanoma; 39.9 µM and 50.6 µM in the experiment on LXFL 529 NSCLC; > 100 µM and 55.4 µM in the experiment on M19-MEL melanoma; > 83.2 µM and 46.4 µM with NCI-H23 lung.
Regarding `COC(=O)NC1C(C)OC(OC2C/C=C(/C)C3C=CC4C(OC5CC(OC6CCC(OC7CC(O)C(OC8CCC(O)C(C)O8)C(C)O7)C(C)O6)C(OC(C)=O)C(C)O5)C(C)CC(C)C4C3(C)/C(O)=C3/C(=O)OC4(CC(C=O)=CC(O)C4/C=C\2C)C3=O)CC1(C)[N+](=O)[O-]` (stereo not given), the GI50 in the experiment with 786-0 renal was 0.21 µM; in the experiment with A549 NSCLC, 0.48 µM; with CAKI-1 renal, 1.05 µM; in the experiment on HCC-2998 colon, 0.208 µM; in the experiment on LOX IMVI melanoma it was 0.281 µM; in the experiment with M19-MEL melanoma, 0.0982 µM. For the same compound, the GI50 with NCI-H23 lung is 0.171 µM. Moreover, the TGI in the experiment on 786-0 renal was 2.2 µM and 0.518 µM; in the experiment on A549 NSCLC it was 8.73 µM and 2.5 µM; in the experiment with ACHN renal, 2.72 µM; with CAKI-1 renal, 7.08 µM and 3.27 µM; in the experiment with DU-145 prostate it was 5.07 µM; in the experiment on HCC-2998 colon it was 1.95 µM and 0.453 µM. Further, the TGI in the experiment on LOX IMVI melanoma was 1.32 µM and 0.808 µM; with LXFL 529 NSCLC, 1.97 µM; with M19-MEL melanoma, 2.02 µM and 0.473 µM; in the experiment with NCI-H23 lung, 2.22 µM and 0.403 µM.
In the case of `Nc1ccc2n[se]nc2c1`, the TGI in the experiment on 786-0 renal, with A549 NSCLC, in the experiment on ACHN renal, with CAKI-1 renal, in the experiment with HCC-2998 colon and in the experiment with LOX IMVI melanoma was greater than 100 µM each time. For the same compound, the TGI in the experiment on LXFL 529 NSCLC, with M19-MEL melanoma and in the experiment with NCI-H23 lung was greater than 100 µM throughout.
Take `CC1(C)CCC(Sc2ccccc2)O1` (stereo not given): the TGI with 786-0 renal, in the experiment on A549 NSCLC, with ACHN renal, with CAKI-1 renal, in the experiment with HCC-2998 colon and in the experiment on LOX IMVI melanoma was greater than 100 µM in each case. The TGI with LXFL 529 NSCLC, in the experiment on M19-MEL melanoma and with NCI-H23 lung was greater than 100 µM throughout.
Regarding `COC1=C(N)C(=O)c2nc(-c3nc(C(=O)O)c(C)c(-c4ccc(OC)c(OC)c4O)c3N)ccc2C1=O`, the TGI with 786-0 renal was 0.00261 µM and 0.0217 µM and < 0.01 µM; with A549 NSCLC, 0.00428 µM and 0.0325 µM and 0.0216 µM; with ACHN renal it was 0.00376 µM and 0.0263 µM and < 0.01 µM; with DU-145 prostate, 0.0409 µM and 0.0193 µM; in the experiment with LXFL 529 NSCLC, 0.0206 µM; with M19-MEL melanoma, 0.0224 µM and 0.0234 µM. Also, the GI50 in the experiment on A549 NSCLC was 0.00135 µM and 0.00894 µM; in the experiment on HCC-2998 colon, 0.00121 µM and 0.00468 µM; in the experiment with LOX IMVI melanoma, 0.024 µM and 0.00755 µM.
For the compound `CC1CC2C3CCC4=CC(=O)C=CC4(C)C3(F)C(O)CC2(C)C1(O)C(=O)COP(=O)(O)O` (stereo not given), the GI50 with 786-0 renal, in the experiment on A549 NSCLC, in the experiment with ACHN renal, with CAKI-1 renal, with DU-145 prostate and with HCC-2998 colon was greater than 500 µM in each case. Moreover, the GI50 in the experiment with LOX IMVI melanoma and in the experiment on NCI-H23 lung was greater than 500 µM throughout. For the same compound, the TGI in the experiment on 786-0 renal, in the experiment on A549 NSCLC, with ACHN renal, with CAKI-1 renal, in the experiment on DU-145 prostate and in the experiment on HCC-2998 colon was greater than 500 µM throughout. For the same compound, the TGI in the experiment on LOX IMVI melanoma is greater than 500 µM; with LXFL 529 NSCLC, greater than 100 µM; in the experiment with M19-MEL melanoma it was greater than 100 µM; in the experiment with NCI-H23 lung it was greater than 500 µM.
As for `COc1cc[c]([Sn]([c]2ccc(OC)cc2)([c]2ccc(OC)cc2)[c]2ccc(OC)cc2)cc1`, the GI50 in the experiment with 786-0 renal was 18.1 µM; with A549 NSCLC it was 25.9 µM; in the experiment on ACHN renal, 17.4 µM; in the experiment with CAKI-1 renal, 10.9 µM; with HCC-2998 colon, 17.8 µM; with LOX IMVI melanoma, 13.6 µM. Further, the GI50 in the experiment with LXFL 529 NSCLC is 15.8 µM; in the experiment on M19-MEL melanoma, 34.6 µM; with NCI-H23 lung, 23.3 µM. Also, the TGI was 43.5 µM with 786-0 renal; greater than 100 µM with A549 NSCLC; 96.7 µM in the experiment with ACHN renal; 69.2 µM in the experiment with CAKI-1 renal; 50.5 µM in the experiment on HCC-2998 colon; 29.4 µM in the experiment with LOX IMVI melanoma. Moreover, the TGI in the experiment on LXFL 529 NSCLC was 36.4 µM; in the experiment on M19-MEL melanoma it was greater than 100 µM; in the experiment with NCI-H23 lung, greater than 100 µM.
In the case of `CC(C)(CN1C(=O)C(Cl)=C(Cl)C1=O)CN1C(=O)C(Cl)=C(Cl)C1=O`, the TGI in the experiment on 786-0 renal is 28.6 µM; in the experiment on A549 NSCLC it was greater than 72.7 µM; with ACHN renal, 21.7 µM; in the experiment with CAKI-1 renal, 15.9 µM; in the experiment with HCC-2998 colon, 39.4 µM; with LOX IMVI melanoma it was 33.5 µM. In addition, the TGI was determined as 19.7 µM in the experiment on LXFL 529 NSCLC, 25 µM in the experiment on M19-MEL melanoma and 21 µM in the experiment on NCI-H23 lung.
`Cc1nc(N)nc(N)c1CCCCc1ccc(N)cc1`: the TGI in the experiment with 786-0 renal is 18.9 µM; with A549 NSCLC, 16.8 µM; in the experiment with ACHN renal, 59.2 µM; in the experiment with CAKI-1 renal it was 39.5 µM; in the experiment on HCC-2998 colon, 15.7 µM; in the experiment on LOX IMVI melanoma, 14.8 µM. Also, the TGI in the experiment with LXFL 529 NSCLC amounted to 20.4 µM; in the experiment with M19-MEL melanoma it was 25.5 µM; with NCI-H23 lung it was 15.8 µM.
As for `CC(C)(C)c1cc(CCC(=O)Nc2ccc(Cl)cc2)[nH]c(=S)n1`, the TGI in the experiment with 786-0 renal, in the experiment on A549 NSCLC, with ACHN renal, in the experiment with CAKI-1 renal, with HCC-2998 colon and in the experiment on LOX IMVI melanoma was greater than 100 µM each time. Besides, the TGI in the experiment on LXFL 529 NSCLC, in the experiment with M19-MEL melanoma and with NCI-H23 lung was greater than 100 µM in each case.
Take `COC(=O)C(=O)Cc1nc2ccccc2s1`: the TGI with 786-0 renal, in the experiment on A549 NSCLC, in the experiment with ACHN renal, in the experiment on CAKI-1 renal, in the experiment on HCC-2998 colon and in the experiment on LOX IMVI melanoma was greater than 100 µM each time. Besides, the TGI with LXFL 529 NSCLC, in the experiment with M19-MEL melanoma and in the experiment with NCI-H23 lung was greater than 100 µM throughout.
Consider `COC(=O)CCSC(=O)Nc1ccc(N=Nc2ccccc2)cc1`, for which the TGI is greater than 100 µM with 786-0 renal; greater than 100 µM in the experiment with A549 NSCLC; greater than 100 µM in the experiment with ACHN renal; greater than 100 µM with CAKI-1 renal; 59 µM in the experiment on HCC-2998 colon; greater than 100 µM in the experiment on LOX IMVI melanoma. Also, the TGI with LXFL 529 NSCLC is greater than 100 µM; in the experiment with M19-MEL melanoma, greater than 100 µM; in the experiment with NCI-H23 lung, 92 µM.
